Key:
[1] = test system: Caco-2 cells; test: in vitro; details: Caco-2
Experimental: (§1) The transport buffer solution was HBSS (Hanks' balanced salt solution) and 10 mM HEPES [N-(2-hydroxyethyl)piperazine-N-(2-ethanesulfonic acid) solution], with a pH value of 7.40±0.05; Caco-2 cells were purchased from ATCC.
(§2) Caco-2 cells were seeded at 1×10^5 cells/cm^2 in 96-well BD insert plates of polyethylene terephthalate (PET), and the medium was refreshed every 4-5 days until day 21-28 to form a confluent monolayer. Test compounds were tested in a two-way format at 2 μM in duplicate. Digoxin was added at 10 μM in the two-way format, and nadolol and metoprolol were added at 2 μM in the two-way format. Final concentration of DMSO was adjusted to less than 1%. The plates were incubated in a CO2 incubator at 37±1° C. for 2 h with 5% CO2 at saturated humidity without shaking. All samples were mixed with acetonitrile containing an internal standard, and centrifuged at 4000 rpm for 10 min. 100 microliters of supernatant was diluted with 100 microliters of distilled water for LC/MS/MS analysis. By LC/MS/MS analysis, the concentrations of the test compounds and the reference compound in the initial test article solution, the test article solution and the test compound solution using the peak area ratio of the analyte to the internal standard. After the transport test, the integrity of the Caco-2 cell monolayer was determined by fluorescein yellow exclusion reaction, and the apparent permeability coefficient and efflux ratio were calculated.

[2] = target: JAK1(h) (Homo sapiens (Human), UniProt P23458); test: In vitro activity assay of JAK1 kinase (radiometric, Eurofins); format: biochemical
Experimental: (§3) Recombinant human JAK1, JAK2, JAK3 and TYK2 […], and main instruments and reagents were provided by Eurofins, UK.
(§4) Dilution of JAK2, JAK3 and TYK2: 20 mM 3-(N-morpholino)propanesulfonic acid (MOPS), 1 mM EDTA, 0.01% Brij-35.5% glycerol, 0.1% β-mercaptoethanol, 1 mg/mL BSA; dilution of JAK1: 20 mM TRIS, 0.2 mM EDTA, 0.1% β-mercaptoethanol, 0.01% Brij-35.5% glycerol. All compounds were prepared into a 100% DMSO solution and brought to 50-fold the final assay concentration. The test compounds were diluted in 3-fold concentration gradient with 9 final concentrations from 10 μM to 0.001 μM, wherein DMSO content in the assay reaction was 2%. Working stock solutions of the compounds were added to the assay wells as the first component of the reaction, and then the remaining components were added according to the protocol detailed for the assay below.
(§5) JAK1(h) was incubated with 20 mM Tris/HCl pH 7.5, 0.2 mM EDTA, 500 μM MGEEPLYWSFPAKKK, 10 mM magnesium acetate and [γ-^33P]-ATP (activity and concentration were determined as required). […] 10 μL of the reaction mixture was then added dropwise on a P30 filter pad and washed three times with 0.425% phosphoric acid and once with methanol within 4 minutes, then dried and analyzed using a scintillation counter.

[3] = target: JAK2(h) (Homo sapiens (Human), UniProt O60674); test: In vitro activity assay of JAK2 kinase (radiometric, Eurofins); format: biochemical
Experimental: as §3, §4
JAK2(h) was incubated with 8 mM MOPS pH 7.0, 0.2 mM EDTA, 100 μM […], 10 mM magnesium acetate and [γ-^33P]-ATP (activity and concentration were determined as required). The reaction was started by adding the Mg/ATP mixture and terminated by adding 0.5% phosphoric acid after 40 min of incubation at room temperature. 10 μL of the reaction mixture was then added dropwise on a P30 filter pad and washed three times with 0.425% phosphoric acid and once with methanol within 4 minutes, then dried and analyzed using a scintillation counter.

[4] = target: JAK3(h) (Homo sapiens (Human), UniProt P52333); test: In vitro activity assay of JAK3 kinase (radiometric, Eurofins); format: biochemical
Experimental: as §3, §4
as §5, with “JAK3(h)” for “JAK1(h)”, “8” for “20”, “MOPS” for “Tris/HCl”, “7.0,” for “7.5,”, “GGEEEEYFELVKKKK,” for “MGEEPLYWSFPAKKK,”

[5] = target: TYK2(h) (Homo sapiens (Human), UniProt P29597); test: In vitro activity assay of TYK2 kinase (radiometric, Eurofins); format: biochemical
Experimental: as §3, §4
as §5, with “TYK2(h)” for “JAK1(h)”, “8” for “20”, “MOPS” for “Tris/HCl”, “7.0,” for “7.5,”, “250” for “500”, “GGMEDIYFEFMGGKKK,” for “MGEEPLYWSFPAKKK,”

[6] = in vitro; details: human, Caco-2, pH 7.4
Experimental: as §1, §2

[7] = Pharmacokinetic (PK) test in mice; format: in vivo, mice (C57BL/6); details: mouse, plasma, male C57BL/6 mice
Experimental: Clear solutions obtained by dissolving the test compounds were administered to male mice (C57BL/6) or rats (SD) by tail vein injection and oral gavage (overnight fasting, 7-8 weeks old). After the administration of the test compounds, blood was collected from the mandibular vein and centrifuged to obtain plasma at 0.117, 0.333, 1, 2, 4, 7 and 24 h for the intravenous injection group (1 mg/kg), and at 0.25, 0.5, 1, 2, 4, 8 and 24 h for the oral gavage group (3 mg/kg). The plasma concentration was measured by LC-MS/MS, and the relevant pharmacokinetic parameters were calculated by WinNonlin™ Version 6.3 pharmacokinetic software using non-compartmental model linear logarithmic trapezoid method.

[8] = test system: adjuvant-induced arthritis (AIA); test: Adjuvant-induced arthritis (AIA) in rats, in-vivo pharmacodynamic study; parameters: species or system Lewis rats; details: rat AIA
Experimental: The compounds disclosed herein were tested for their efficacy on arthritis using a model of adjuvant-induced arthritis in rat. Female, 160 to 180 gram Lewis rats were anesthetized with isoflurane and injected subcutaneously with 0.1 mL of Mycobacterium tuberculosis suspension in the left hind paw. The animals were grouped and administered with thetest compounds after 13 days of modeling, for example, the rats were given different doses as shown in Table 4-2. The test compound 1-13 was dissolved in a mixed menstruum of [5% DMSO, 95% (12% SBE-β-CD), 0.5% MC]. The female Lewis rats were orally administered 2 times daily (8 animals in each group).

[9] = Basic pKa of the compound; format: physicochemical
Description: The present disclosure also performs salt-forming screening on L-aspartic acid, fumaric acid, L-tartaric acid and citric acid. Using the crystal form A of the compound represented by formula (II) as raw material, according to the basic pKa (4.47) of the compound and the rough solubility of the starting material in different solvents at room temperature, L-aspartic acid, fumaric acid, L-tartaric acid and citric acid were selected as acidic ligands (molar ratio of free state to acidic ligand was 1:1), and the specific steps of the screening test of five solvent systems as shown in Table 24 were as follows: about 20 mg of the starting crystal form A of the compound represented by formula (II) and equimolar amounts of the above acid were weighed into an HPLC vial, and 0.5 mL of the following solvent were added thereto and mixed to obtain a suspension. After suspending and stirring at room temperature for 3 days, the solid was separated by centrifugation and dried under vacuum at room temperature for about 4 hours.

[10] = iv 1 mg/kg, oral gavage 3 mg/kg

Chain of JAK3(h) (P52333 whole entry): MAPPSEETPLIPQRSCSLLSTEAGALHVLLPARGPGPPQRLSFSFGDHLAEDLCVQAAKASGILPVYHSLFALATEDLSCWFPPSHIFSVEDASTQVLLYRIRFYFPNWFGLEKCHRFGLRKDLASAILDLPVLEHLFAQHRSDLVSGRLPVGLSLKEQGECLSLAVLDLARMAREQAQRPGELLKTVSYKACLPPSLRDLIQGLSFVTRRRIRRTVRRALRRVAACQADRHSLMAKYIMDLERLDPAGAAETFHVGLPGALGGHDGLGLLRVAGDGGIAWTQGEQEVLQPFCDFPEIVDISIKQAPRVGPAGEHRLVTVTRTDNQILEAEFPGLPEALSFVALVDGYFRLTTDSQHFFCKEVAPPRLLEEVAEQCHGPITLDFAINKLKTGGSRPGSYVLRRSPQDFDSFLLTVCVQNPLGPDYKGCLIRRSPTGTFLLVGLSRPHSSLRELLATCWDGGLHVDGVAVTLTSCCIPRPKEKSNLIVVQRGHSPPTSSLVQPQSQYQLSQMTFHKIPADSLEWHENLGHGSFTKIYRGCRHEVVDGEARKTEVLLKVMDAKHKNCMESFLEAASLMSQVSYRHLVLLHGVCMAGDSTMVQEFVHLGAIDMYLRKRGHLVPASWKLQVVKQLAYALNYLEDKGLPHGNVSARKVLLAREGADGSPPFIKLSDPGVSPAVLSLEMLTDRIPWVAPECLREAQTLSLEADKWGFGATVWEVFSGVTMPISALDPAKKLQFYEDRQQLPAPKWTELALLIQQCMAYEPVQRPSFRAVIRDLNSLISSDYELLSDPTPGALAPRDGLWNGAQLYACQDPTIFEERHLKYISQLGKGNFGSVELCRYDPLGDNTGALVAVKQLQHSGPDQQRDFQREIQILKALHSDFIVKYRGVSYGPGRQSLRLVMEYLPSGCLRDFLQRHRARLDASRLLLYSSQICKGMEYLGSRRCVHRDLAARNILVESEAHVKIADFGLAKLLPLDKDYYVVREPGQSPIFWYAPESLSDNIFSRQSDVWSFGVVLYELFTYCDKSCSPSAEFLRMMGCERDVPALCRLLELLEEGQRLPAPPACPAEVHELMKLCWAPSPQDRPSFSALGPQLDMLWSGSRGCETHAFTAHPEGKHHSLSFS
Chain of TYK2(h) (P29597 whole entry): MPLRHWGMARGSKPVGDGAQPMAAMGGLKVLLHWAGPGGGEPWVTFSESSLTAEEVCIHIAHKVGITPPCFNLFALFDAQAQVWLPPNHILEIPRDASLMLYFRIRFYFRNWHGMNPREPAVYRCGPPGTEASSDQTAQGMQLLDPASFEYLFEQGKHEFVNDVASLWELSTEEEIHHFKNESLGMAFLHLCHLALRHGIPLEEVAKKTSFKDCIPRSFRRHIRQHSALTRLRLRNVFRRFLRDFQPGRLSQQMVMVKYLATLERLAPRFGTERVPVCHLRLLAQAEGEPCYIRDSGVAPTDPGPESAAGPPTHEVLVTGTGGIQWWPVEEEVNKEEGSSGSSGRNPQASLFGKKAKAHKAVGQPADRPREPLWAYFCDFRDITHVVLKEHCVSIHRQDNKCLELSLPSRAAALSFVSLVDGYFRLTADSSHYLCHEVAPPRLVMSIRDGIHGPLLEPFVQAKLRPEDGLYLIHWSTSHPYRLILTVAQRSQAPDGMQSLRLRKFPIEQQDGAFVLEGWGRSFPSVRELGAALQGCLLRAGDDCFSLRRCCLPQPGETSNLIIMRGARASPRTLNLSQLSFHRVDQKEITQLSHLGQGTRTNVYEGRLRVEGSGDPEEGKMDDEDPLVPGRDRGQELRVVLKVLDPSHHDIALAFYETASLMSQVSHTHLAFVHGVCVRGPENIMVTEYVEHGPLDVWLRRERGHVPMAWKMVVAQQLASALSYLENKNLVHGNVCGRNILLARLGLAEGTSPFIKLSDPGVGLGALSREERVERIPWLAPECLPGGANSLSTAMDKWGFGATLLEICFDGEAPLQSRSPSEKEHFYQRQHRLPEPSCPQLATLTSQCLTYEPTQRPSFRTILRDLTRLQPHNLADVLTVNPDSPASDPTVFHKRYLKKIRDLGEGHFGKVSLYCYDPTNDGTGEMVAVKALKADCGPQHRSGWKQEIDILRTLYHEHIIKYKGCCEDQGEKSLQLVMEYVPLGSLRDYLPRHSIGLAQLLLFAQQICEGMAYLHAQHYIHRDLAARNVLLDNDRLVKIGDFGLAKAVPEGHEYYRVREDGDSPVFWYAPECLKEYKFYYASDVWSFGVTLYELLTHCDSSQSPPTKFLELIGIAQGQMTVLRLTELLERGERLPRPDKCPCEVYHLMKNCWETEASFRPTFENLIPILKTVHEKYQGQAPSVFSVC
Chain of JAK2(h) (O60674 whole entry): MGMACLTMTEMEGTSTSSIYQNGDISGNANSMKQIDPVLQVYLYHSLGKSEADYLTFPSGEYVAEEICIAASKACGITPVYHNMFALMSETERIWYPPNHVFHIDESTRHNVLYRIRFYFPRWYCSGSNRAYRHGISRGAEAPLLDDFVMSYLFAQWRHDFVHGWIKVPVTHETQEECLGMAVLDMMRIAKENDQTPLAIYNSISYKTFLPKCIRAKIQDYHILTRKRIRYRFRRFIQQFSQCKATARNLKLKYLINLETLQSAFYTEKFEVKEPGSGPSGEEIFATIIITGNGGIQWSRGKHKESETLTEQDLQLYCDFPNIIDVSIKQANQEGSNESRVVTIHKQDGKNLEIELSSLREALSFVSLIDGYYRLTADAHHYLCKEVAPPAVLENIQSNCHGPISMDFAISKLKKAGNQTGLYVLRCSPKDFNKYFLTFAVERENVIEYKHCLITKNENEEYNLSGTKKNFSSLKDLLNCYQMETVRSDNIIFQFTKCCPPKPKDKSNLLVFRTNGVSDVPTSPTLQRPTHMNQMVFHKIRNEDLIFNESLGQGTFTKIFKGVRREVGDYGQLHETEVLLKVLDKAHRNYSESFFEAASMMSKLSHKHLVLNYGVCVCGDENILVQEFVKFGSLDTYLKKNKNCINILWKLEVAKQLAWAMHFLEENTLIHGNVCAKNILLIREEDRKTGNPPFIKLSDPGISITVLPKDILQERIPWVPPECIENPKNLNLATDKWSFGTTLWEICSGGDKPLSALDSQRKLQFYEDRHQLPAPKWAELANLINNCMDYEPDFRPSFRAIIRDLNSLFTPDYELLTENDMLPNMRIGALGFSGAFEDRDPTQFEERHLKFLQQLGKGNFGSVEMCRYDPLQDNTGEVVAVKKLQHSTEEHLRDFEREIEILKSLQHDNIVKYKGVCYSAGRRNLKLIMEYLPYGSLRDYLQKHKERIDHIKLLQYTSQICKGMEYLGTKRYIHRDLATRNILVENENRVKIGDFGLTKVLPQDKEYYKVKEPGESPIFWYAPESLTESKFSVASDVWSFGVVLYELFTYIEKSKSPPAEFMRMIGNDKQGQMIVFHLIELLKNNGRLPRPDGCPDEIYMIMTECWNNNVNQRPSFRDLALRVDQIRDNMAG
Chain of JAK1(h) (P23458 whole entry): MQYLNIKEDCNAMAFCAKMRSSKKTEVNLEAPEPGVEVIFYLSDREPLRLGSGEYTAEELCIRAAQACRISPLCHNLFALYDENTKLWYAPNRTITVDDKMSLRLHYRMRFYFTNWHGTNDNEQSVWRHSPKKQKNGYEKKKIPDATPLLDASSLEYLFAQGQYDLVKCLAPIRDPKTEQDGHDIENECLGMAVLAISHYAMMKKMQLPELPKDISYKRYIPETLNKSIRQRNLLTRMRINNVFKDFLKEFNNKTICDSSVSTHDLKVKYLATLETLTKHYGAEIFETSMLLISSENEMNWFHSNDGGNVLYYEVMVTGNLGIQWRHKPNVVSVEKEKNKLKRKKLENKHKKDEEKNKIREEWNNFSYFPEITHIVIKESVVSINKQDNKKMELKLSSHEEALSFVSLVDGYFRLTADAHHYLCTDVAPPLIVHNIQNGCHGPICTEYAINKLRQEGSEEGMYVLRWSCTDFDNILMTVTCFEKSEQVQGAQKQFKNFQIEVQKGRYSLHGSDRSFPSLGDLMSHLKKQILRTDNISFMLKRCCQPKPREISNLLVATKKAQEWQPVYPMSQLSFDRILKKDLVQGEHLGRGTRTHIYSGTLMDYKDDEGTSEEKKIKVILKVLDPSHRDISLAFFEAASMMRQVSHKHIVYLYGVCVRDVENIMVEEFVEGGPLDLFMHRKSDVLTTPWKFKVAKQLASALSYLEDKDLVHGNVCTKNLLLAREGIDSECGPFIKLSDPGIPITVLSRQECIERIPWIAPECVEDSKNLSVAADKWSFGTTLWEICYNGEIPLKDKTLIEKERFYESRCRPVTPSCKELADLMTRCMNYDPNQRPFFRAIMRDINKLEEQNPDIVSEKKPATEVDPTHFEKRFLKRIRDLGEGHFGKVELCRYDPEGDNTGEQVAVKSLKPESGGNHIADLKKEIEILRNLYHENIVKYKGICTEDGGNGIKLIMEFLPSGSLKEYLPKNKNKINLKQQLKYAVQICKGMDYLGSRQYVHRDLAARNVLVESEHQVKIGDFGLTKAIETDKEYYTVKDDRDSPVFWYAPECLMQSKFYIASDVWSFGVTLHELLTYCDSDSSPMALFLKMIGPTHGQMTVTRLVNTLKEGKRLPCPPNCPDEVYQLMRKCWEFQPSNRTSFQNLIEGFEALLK

Row | SMILES | Mean apparent permeability coefficient Mean Papp A to B [1] | IC50 [2] | IC50 [3] | IC50 [4] | IC50 [5] | Papp A→B at 2 h, 2 μM [6] | Papp B→A at 2 h, 2 μM [6] | efflux ratio at 2 h, 2 μM [6] | AUC(0-inf) [7, 10] | Cmax [7, 10] | half-life [7, 10] | bioavailability ([7]; oral gavage 3 mg/kg vs iv 1 mg/kg) | therapeutic effect (inhibition rate versus menstruum control group) ([8]; 3 mg/kg and 10 mg/kg, P<0.0001) | Inhibition on area under the clinical score curve (AUC) ([8]; 3 mg/kg oral 2 times daily) | Inhibition on area under the clinical score curve (AUC) ([8]; 10 mg/kg oral 2 times daily) | pKa [9]
1 | CC(C)(C)NCC(O)COc1cccc2c1CC(O)C(O)C2 (stereo not shown) [Nadolol] | 0.16 10^−6 cm/s | – | – | – | – | – | – | – | – | – | – | – | – | – | – | –
2 | CN(c1ncnc2[nH]ccc12)[C@@H]1CCc2cc(C#N)nn2C1 | – | 1 nM | 8 nM | 118 nM | 15 nM | 28.6 ×10⁻⁶ cm/s | 31.2 ×10⁻⁶ cm/s | 1.09 | 12.8 µM·h | 6 µM | 1.89 h | 88.4% | significant therapeutic effect | 49.6% | 60.5% | 4.47

Reference: US20240002404A1, “SALT OF PYRROLOPYRIMIDINE COMPOUND, CRYSTALLINE FORM THEREOF, AND APPLICATION THEREOF” (GUANGZHOU JOYO PHARMATECH CO., LTD, priority 2020, published 2024)
